Measurements as given in paper PMC9127185, “A Pyridazinone Compound for Effectively Treating Non-alcoholic Steatohepatitis by Targeting THRβ” (Frontiers in Chemistry, 2022).
Like-named read-outs stand apart in the source and are kept apart here.

Key:
[1] = Pharmacokinetic study after oral administration, plasma by UPLC-MS/MS; format: in vivo, C57BL/6J mice; conditions: for Cmax / Tmax / CL/F / MRT last / MRT inf / half-life: C57BL/6J, mouse, mice plasma; for CL/F: read-out: CLz/F; for MRT last: read-out: MRT (0-t) (converted); for MRT inf: read-out: MRT (0-∞) (converted); for half-life: read-out: t1/2z
Procedure: Sorvall Biofuge Stratos high-speed refrigerated centrifuge was bought from the Thermo Fisher Scientific Co. Ltd. (Shanghai, China); EL204 electronic balance was selected from Shanghai Mettler-Toledo Instruments Co. Ltd. (Shanghai, China); IKA Vortex Genius 3 Vortex Mixer was purchased from Aika Instrument Equipment Co. Ltd. (Guangzhou, China); and the test was carried out using an AB SCIEX™ 5500 Q-Trap® mass spectrometer (Applied Biosystems, United States) coupled to a Shimadzu Prominence UPLC (ultra-performance liquid chromatography, Shimadzu, United States) system. It was equipped with a binary pump, a degasser, an auto sampler, and an automatic thermostatic column compartment. The column was utilized from Agela Technologies UHP Innoval C18 (2.1 × 50 mm, 1.9 μm; Agela Technologies; Made in China). The whole process with a gradient elution program is as follows: 0.00–0.50 min, 5% B; 0.50–1.50 min, 90% B; 1.50–3.00 min, 90% B; 3.00–3.10 min, 15% B; and 3.10–5.00 min, 15% B. The mobile phase was made up of 0.10% formic acid in water (A) and acetonitrile (B), and the velocity of flow was 0.50 ml/min. The auto sampler and column temperature were set at 15 and 40°C, respectively. The injection volume was 1 μl. The Q-Trap mass spectrometer was operated with positive electrospray ionization source (ESI) and scanned using the multiple-reaction monitoring (MRM) mode. The Analyst® software version 1.6.3 (Applied Bio-systems, AB SCIEX™, United States) was used to control the UPLC-MS/MS system. The best of the YWS01125 parameters was curtain gas, 35 psi; collision gas, medium; ion spray voltage, 5500 V; temperature, 500°C; ion source gas 1, 50 psi; and ion source gas 2, 50 psi. The quantitative analysis ion pairs of YWS01125 and MGL-3196 (IS) were m/z 446.2 → 375 and m/z 435.2 → 182, individually. The suitable collision energy (CE) of YWS01125 and IS was 42 and 50 eV, respectively, and the decluttering voltage (DP) was 160 and 180 V, respectively.
The frozen mice plasma samples and tissue homogenates were thawed at room temperature, vortexed for 1 min, then taken out in 10-μl aliquots in a 1.50-ml centrifuge tube, and this was then mixed with 1 μl of standard solution and 50 μl of internal standard (IS) solution, which was then dissolved and diluted with acetonitrile. Subsequently, it was vortexed for 3 min and at 14,000 rpm centrifugation for 5 min. The adopted 1 μl of the supernatant was used for sample injection analysis.
A total of 18 C57BL/6J mice were given YWS01125 by oral administration with a dose of 10, 20, and 40 mg/kg, respectively ([Lally et al., 2019]; [Kelly et al., 2014]; [Motamed et al., 2017]) (with the concentration of drug administration selected according to the study by Kelly et al.). The blood samples of 20 μl were collected and placed in heparinized tubes from the ophthalmic venous plexus before and at 0.03, 0.08, 0.16, 0.25, 0.50, 1, 2, 4, 6, 8, 12, and 24 h. The samples were immediately centrifuged at 14,000 rpm for 10 min at 4°C. The plasma was separated and stored below −80°C until UHPLC-MS/MS analysis.
The validated method was applied to the pharmacokinetic study of YWS01125 in normal C57BL/6J mice after oral administration, at doses of 10, 20, and 40 mg/kg suspensions with sodium carboxymethyl cellulose (CMCNa). YWS01125 was measured in the plasma until the last blood collection time (24 h). The main pharmacokinetic parameters of YWS01125 were processed by a no compartmental model using the DAS 2.0 software package, and the pharmacokinetic parameters are summarized in Table 4.

[2] = Stability of YWS01125 in mouse plasma under storage conditions; format: in vitro ADME; conditions: for Accuracy (RE) after storage / Concentration found after storage, Mean ± SD: mouse plasma
Procedure: The validation was carried out by the US Food and Drug Administration bioanalytical method guidance ([Bioanalytical Method Validation, 2018]; [US Food and Drug Administration, 2018]; [Chen et al., 2019]), namely evaluating selectivity, linearity, accuracy and precision, recovery, matrix effect, and stability. Selectivity was assessed by contrasting the normal blank plasma samples' and analyst plasma samples' chromatograms from six different specimens. Linearity was appraised by different concentrations of the standard medicated plasma samples for 3 days continuously. The peak area was recorded ([Booth et al., 2015]), and weighted (1/x^2) least-squares analysis was used to acquire the standard curve equations. The accuracy and precision were assessed by three different (low, medium, and high) QC samples by diluting with acetonitrile; each concentration had six samples and was continuously accessed for 3 days, and the accuracy, intra-day precision, and inter-day precision were obtained. Recovery was evaluated by comparing the peak area of protein precipitated with acetonitrile first and finally using it to calculate the recovery of the analyst. The matrix effect was measured by comparing the analyst peak area with the saline solution samples and QC samples at the three concentrations. The stability was assessed by defining the three QC levels in several different storage conditions: at room temperature for 6 h, injector stability at 15 °C for a whole night, and after three freeze–thaw cycles.
This experiment investigated the stability of YWS01125 in the mouse plasma at different temperature conditions, namely the auto sampler (15°C) for 12 h of injector stability, room temperature for 6 h, and three freeze–thaw cycles. […] The measured results of YWS01125 are all within the acceptable limits during the entire process (Table 3).

[3] = injector stability (15°C, 12 h), added 10 ng/ml
[4] = injector stability (15°C, 12 h), added 50 ng/ml
[5] = injector stability (15°C, 12 h), added 300 ng/ml
[6] = room temperature for 6 h, added 10 ng/ml
[7] = room temperature for 6 h, added 300 ng/ml
[8] = three freeze–thaw cycles, added 10 ng/ml
[9] = three freeze–thaw cycles, added 50 ng/ml
[10] = three freeze–thaw cycles, added 300 ng/ml

## N#Cc1cn(-c2cc(Cl)c(Oc3cc(C4CCC4)c(=O)[nH]n3)c(Cl)c2)c(=O)[nH]c1=O [YWS01125, 1-(3,5-dichloro-4-((5-cyclobutyl-6-oxo-1,6-dihydropyridazin-3-yl)oxy)phenyl)-2,4-dioxo-1,2,3,4-tetrahydropyrimidine-5-carbonitrile]
[1]; oral 10 mg/kg
  Cmax: 188 ± 30 ng/mL
  Tmax: 0.917 h
  CL/F: 160 ± 20 mL/min/kg
  MRT last: 3.42 h
  MRT inf: 4.04 h
  half-life: 3.15 ± 1.59 h
[1]; oral 20 mg/kg
  Cmax: 293 ± 60.4 ng/mL
  Tmax: 1 h
  CL/F: 250 ± 280 mL/min/kg
  MRT last: 3.06 h
  MRT inf: 3.4 h
  half-life: 2.54 ± 0.633 h
[1]; oral 40 mg/kg
  Cmax: 382 ± 30.6 ng/mL
  Tmax: 0.917 h
  CL/F: 280 ± 50 mL/min/kg
  MRT last: 4.57 h
  MRT inf: 4.94 h
  half-life: 3.03 ± 1.07 h
[1]; mice, oral
  Time of highest concentration in the blood: 1 h
[2]; auto sampler 15°C 12 h, room temperature 6 h, three freeze–thaw cycles
  Stability in mouse plasma (in words): maintains stability
[2]; [3]
  Accuracy (RE) after storage: 5.00%
  Concentration found after storage, Mean ± SD: 10.67 ± 0.52 ng/mL
[2]; [4]
  Accuracy (RE) after storage: −4.68%
  Concentration found after storage, Mean ± SD: 49.91 ± 2.15 ng/mL
[2]; [5]
  Accuracy (RE) after storage: −1.60%
  Concentration found after storage, Mean ± SD: 295.17 ± 29.36 ng/mL
[2]; [6]
  Accuracy (RE) after storage: 1.20%
  Concentration found after storage, Mean ± SD: 10.29 ± 0.82 ng/mL
[2]; room temperature for 6 h, added 50 ng/ml
  Concentration found after storage, Mean ± SD: 52.62 ± 1.73 ng/mL
[2]; [7]
  Accuracy (RE) after storage: 3.88%
  Concentration found after storage, Mean ± SD: 299.33 ± 10.07 ng/mL
[2]; [8]
  Accuracy (RE) after storage: −1.80%
  Concentration found after storage, Mean ± SD: 9.45 ± 0.57 ng/mL
[2]; [9]
  Accuracy (RE) after storage: −2.20%
  Concentration found after storage, Mean ± SD: 47.80 ± 3.96 ng/mL
[2]; [10]
  Accuracy (RE) after storage: −2.66%
  Concentration found after storage, Mean ± SD: 289.17 ± 12.77 ng/mL
